Laboratory results taken from patent US8629242B2, “Methods of inhibiting calcineurin with ApoE analogs” (Cognosci, Inc., priority 2007, dated 2014).

Experiments:
peritoneal macrophages = assay: In vitro LPS+IFN-γ challenge of macrophages from COG 133-treated EAE mice; assay type: cell-based; conditions: macrophages collected dpi 35 from treated mice, vs saline-treated mice, p<0.001
Procedure: FIG. 4. In vivo exposure to COG 133 suppressed in vitro production of inflammatory effectors by peritoneal macrophages. TNF-α (A) and IL-6 (B) were measured by ELISA, and nitrite in culture medium was measured by a Sievers NO Analyzer (C). Statistical analysis was performed by two-tailed student's t test and significance was shown as ** (p<0.01) and *** (p<0.001).
To examine the effect of COG 133 (SEQ ID NO: 1) treatment on activation of macrophages in EAE mice, macrophages were collected from a subset of saline and COG 133-treated mice on dpi 35 and then challenged in vitro with the immune stimulators lipopolysaccharide and interferon-γ (LPS+IFN-γ). Nitrite in culture medium was measured by a Sievers NO Analyzer and TNF-α and IL-6 were measured by ELISA.

[1] = system: cuprizone-induced demyelination in corpus callosum; assay: Cuprizone-induced demyelination model; assay type: in vivo, C57BL/6J male mice
Procedure: FIG. 6. COG 112 promotes remyelination of the corpus callosum in a cuprizone model of demyelination. C57BL/6J male mice were fed with 0.2% cuprizone-containing diet for 5 weeks to induce complete demyelination in the corpus callosum. Starting from week 6, cuprizone was removed and the animals were treated with either vehicle or COG 112 (1 mg/kg) by i.p. injection three times a week for 4 weeks. Myelination in corpus callosum was evaluated on a scale from 0 to 3 after staining brain sections with Luxol Fast Blue (LFB). The data were collected from 4 animals of each group and 2 sections from each animal. A non-parametric Mann-Whitney test was used to compare differences between groups. Panels A and B (100×) are representative pictures of LFB-stained sections from vehicle- and COG 112-treated animals, respectively. Panels C and D (400×) are representative sections labeled with anti-GST-π-FITC antibody (marker for mature oligodendrocytes) from vehicle- and COG 112-treated animals, respectively.
In an EAE model, treatment with COG 112 reduced demyelination in the spinal cord (Example 1). Therefore, we tested the effect of COG peptides on remyelination in a cuprizone-induced demyelination model. C57BL/6J male mice were fed with 0.2% cuprizone-containing mouse chow for 5 weeks to cause demyelination. […]

sciatic nerve crush = assay: Sciatic nerve crush model; assay type: in vivo, C57BL/6J male mice; conditions: 1 mg/kg i.p. daily
Procedure: FIG. 13. COG 112 attenuates axonal neurodegeneration and promotes functional recovery after sciatic nerve crush. C57BL mice were subjected to sciatic nerve crush on left hindlimb using a number 5 jeweler's forceps. The animals received lactated Ringer's buffer or COG 112 (1 mg/kg) by i.p. 2 hr after crush followed by daily dose for 14 days. (A) To assess functional deficits after nerve crush, footprints were recorded and the Sciatic Functional Index (SFI) was calculated. […] Treatment with COG 112 also robustly augmented the mRNA expression of peripheral myelin marker P0 (B) and axonal regeneration marker GAP43 (C) quantified by real-time PCR. **P<0.01; P<0.001. (D) On day 4 after injury, the sciatic nerves were dissected and stained with FD NeuroSilver kit to reveal degenerating axons manifested as dotted lines as depicted in the schematic above the micrographs.
We used a sciatic nerve crush model to investigate whether ApoE analogs can prevent functional loss and/or promote functional recovery after nerve injury. C57BL/6J male mice were anesthetized and the sciatic nerve on left hindlimb was crushed with Number 5 Jeweler's forceps at mid-thigh level for 30 seconds. The animals were then randomly assigned to receive either COG 112 (1 mg/kg, i.p.) or lactated Ringer's buffer two hours after crush followed by daily dose for 14 days. On day 4, two animals from each group were sacrificed and crushed sciatic nerves were dissected and silver stained using a FD NeuroSilver® staining kit to reveal degenerating axons.
On day 7 and 14, footprints for each animal were taken for quantitative assessment of hindlimb motor function. A Sciatic Functional Index (SFI), which takes into account the relationship between toes and feet of an animal's hindlimb, was calculated for each animal as previously described (Bain et al. (1989) Plast. Reconstr. Surg., Vol. 83(1):129-38). SFI values of zero and […] indicate normal and complete dysfunction, respectively.
In order to examine the effect of COG 112 on remyelination and regeneration of axons, segments of sciatic nerves spanning the crushed sites were dissected and collected on day 3, 7 and 14 for examination of P0, a marker of peripheral myelination, and growth associated protein 43 (GAP43), a marker of axonal regeneration, mRNA by real time PCR.

enriched OPCs = assay: OPC proliferation (BrdU) in enriched OPC culture; assay type: cell-based, rat; conditions: 1 μM, three days in proliferation medium
Procedure: FIG. 10. ApoE analog promotes proliferation of OPCs in culture. Cultures enriched in OPCs were grown in proliferation media containing BrdU in the presence and absence of 1 μM COG 112 or a peptide control. Cells were subsequently labeled with Hoescht stain to detect nuclei, a BrdU antibody to detect proliferating cells, and an A2B5 antibody to identify OPCs (left panel). The number of cells per field were counted for each condition (right panel). In graph, the Hoescht bars correspond to the total number of A2B5^+/Hoescht^+ cells, while the BrdU bars correspond to […] cells.
Enriched OPCs were collected by shaking a primary culture of P2 rat pup brain. Proliferation medium containing COG 112 (1 μM), BrdU (20 μM), 10 ng/mL FGF and PDGF was added to the enriched OPC cultures. After three days in culture, cells were stained with Hoescht stain to show nuclei, a BrdU antibody to identify proliferating cells, and an A2B5 antibody to identify OPCs (FIG. 10). Antennapedia, the prefix peptide of COG 112, was used as a control.

Row | Molecule | release of IL-6 (peritoneal macrophages) | release of NO (peritoneal macrophages) | release of TNF-α (peritoneal macrophages) | LFB staining of myelin within corpus callosum ([1]; 1 mg/kg i.p. three times a week for 4 weeks after 5 weeks cuprizone) | GST-π+ cells (mature oligodendrocytes) within the corpus callosum ([1]; 1 mg/kg i.p. three times a week for 4 weeks, vs vehicle) | expression of GAP43 mRNA (real time PCR) (sciatic nerve crush; 2 weeks) | expression of P0 mRNA (real time PCR) (sciatic nerve crush; 2 weeks) | functional recovery (Sciatic Functional Index) (sciatic nerve crush; 2 weeks, vs vehicle, P<0.001) | axonal degeneration (silver staining) (sciatic nerve crush; day 4) | number of A2B5+/BrdU+ cells (enriched OPCs)
1 | CC(=O)N[C@@H](CC(C)C)C(=O)N[C@@H](CCCNC(=N)N)C(=O)N[C@H](C(=O)N[C@@H](CCCNC(=N)N)C(=O)N[C@@H](CC(C)C)C(=O)N[C@@H](C)C(=O)N[C@@H](CO)C(=O)N[C@@H](Cc1c[nH]cn1)C(=O)N[C@@H](CC(C)C)C(=O)N[C@@H](CCCNC(=N)N)C(=O)N[C@@H](CCCCN)C(=O)N[C@@H](CC(C)C)C(=O)N[C@@H](CCCNC(=N)N)C(=O)N[C@@H](CCCCN)C(=O)N[C@@H](CCCNC(=N)N)C(=O)N[C@@H](CC(C)C)C(=O)N[C@@H](CC(C)C)C(N)=O)C(C)C [COG 133] | significantly lower response | significantly lower levels of NO | significantly lower response | – | – | – | – | – | – | –
2 | Ac-RQIKIWFQNRRMKWKKCLRVRLASHLRKLRKRLL-NH2 [COG 112] | – | – | – | significantly increased | Significantly more | robustly increased | robustly increased | significantly improved functional recovery | significantly reduced axonal degeneration | significantly increased
